Test system: NOMO1
Experiment: cell viability relative to DMSO control; higher = less cytotoxic
Settings: 48 h
How it was run: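 Library compounds in DMSO were pin-dosed in an 11-point threefold series (47 μM to 0.79 nM) onto leukemia cells in 1536-well plates (5 μl). Plates held 500 cells/well of NOMO1 or SEM or 1000 cells/well of P12-Ichikawa, each adapted for at least four passages in each medium. Luminescence was read with CellTiter-Glo One after 48 h at 37°C. Viability means the per-plate percentage relative to DMSO wells, using cell-free wells as background.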

[1] = HPLM + 10% dialyzed FBS, 0.000781 µM
[2] = HPLM + 10% dialyzed FBS, 0.00234 µM
[3] = HPLM + 10% dialyzed FBS, 0.00702 µM
[4] = HPLM + 10% dialyzed FBS, 0.0211 µM
[5] = HPLM + 10% dialyzed FBS, 0.0632 µM
[6] = HPLM + 10% dialyzed FBS, 0.19 µM
[7] = HPLM + 10% dialyzed FBS, 0.569 µM
[8] = HPLM + 10% dialyzed FBS, 1.71 µM
[9] = HPLM + 10% dialyzed FBS, 5.12 µM
[10] = HPLM + 10% dialyzed FBS, 15.4 µM
[11] = HPLM + 10% dialyzed FBS, 46.1 µM
[12] = RPMI 5 mM glucose + 10% FBS, 0.000781 µM
[13] = RPMI 5 mM glucose + 10% FBS, 0.00234 µM
[14] = RPMI 5 mM glucose + 10% FBS, 0.00702 µM
[15] = RPMI 5 mM glucose + 10% FBS, 0.0211 µM
[16] = RPMI 5 mM glucose + 10% FBS, 0.0632 µM
[17] = RPMI 5 mM glucose + 10% FBS, 0.19 µM
[18] = RPMI 5 mM glucose + 10% FBS, 0.569 µM
[19] = RPMI 5 mM glucose + 10% FBS, 1.71 µM
[20] = RPMI 5 mM glucose + 10% FBS, 5.12 µM
[21] = RPMI 5 mM glucose + 10% FBS, 15.4 µM
[22] = RPMI 5 mM glucose + 10% FBS, 46.1 µM
[23] = RPMI 5 mM glucose + 10% dialyzed FBS, 0.000781 µM
[24] = RPMI 5 mM glucose + 10% dialyzed FBS, 0.00234 µM
[25] = RPMI 5 mM glucose + 10% dialyzed FBS, 0.00702 µM
[26] = RPMI 5 mM glucose + 10% dialyzed FBS, 0.0211 µM
[27] = RPMI 5 mM glucose + 10% dialyzed FBS, 0.0632 µM
[28] = RPMI 5 mM glucose + 10% dialyzed FBS, 0.19 µM
[29] = RPMI 5 mM glucose + 10% dialyzed FBS, 0.569 µM
[30] = RPMI 5 mM glucose + 10% dialyzed FBS, 1.71 µM
[31] = RPMI 5 mM glucose + 10% dialyzed FBS, 5.12 µM
[32] = RPMI 5 mM glucose + 10% dialyzed FBS, 15.4 µM
[33] = RPMI 5 mM glucose + 10% dialyzed FBS, 46.1 µM

Compound	cell viability [1] [%]	cell viability [2] [%]	cell viability [3] [%]	cell viability [4] [%]	cell viability [5] [%]	cell viability [6] [%]	cell viability [7] [%]	cell viability [8] [%]	cell viability [9] [%]	cell viability [10] [%]	cell viability [11] [%]	cell viability [12] [%]	cell viability [13] [%]	cell viability [14] [%]	cell viability [15] [%]	cell viability [16] [%]	cell viability [17] [%]	cell viability [18] [%]	cell viability [19] [%]	cell viability [20] [%]	cell viability [21] [%]	cell viability [22] [%]	cell viability [23] [%]	cell viability [24] [%]	cell viability [25] [%]	cell viability [26] [%]	cell viability [27] [%]	cell viability [28] [%]	cell viability [29] [%]	cell viability [30] [%]	cell viability [31] [%]	cell viability [32] [%]	cell viability [33] [%]
CCC(=C/[C@H](C)C/C=C/C(C)=C/[C@@H](C)C(=O)[C@@H](C)[C@H](O)[C@@H](C)C/C(C)=C/C(=O)O)/C=C/[C@@H]1OC(=O)C=C[C@@H]1C	118	115	109	107	118	123	125	83.8	4.07	2.4	13.2	104	101	110	99.2	114	114	109	110	3.02	1.72	14.7	99.7	108	113	107	122	120	120	90.2	3.22	2.11	14.7
CN1CCCC(CC1)N2\N=C(CC3=CC=C(Cl)C=C3)/C4=C(C=CC=C4)C2=O (centres undefined)	101	108	109	122	127	125	112	120	109	65.7	48.1	102	107	120	109	109	112	108	114	107	94.2	55.5	117	118	107	110	125	128	121	109	112	106	57.1
COc1ccc2[nH]c([S+]([O-])Cc3ncc(C)c(OC)c3C)nc2c1 (centres undefined)	89.2	78.3	90.9	88.4	95.9	83.7	85.5	89.9	87.3	86.6	59.8	74.9	100	78.3	97	80.7	92	90	100	96.3	93.5	89.1	70.7	91.7	68	98.7	93.4	95.6	87.8	97.9	86	91.1	82.3
c1ccc(CNc2nc(N3CCOc4ccccc43)nc3c2CCCC3)cc1	78.1	97.2	110	103	110	93.4	103	111	107	100	97.8	100	97.7	109	94.9	99.9	106	106	107	106	110	90.2	102	103	112	105	112	111	114	109	109	97.6	98.8
CN1C(=O)C[C@H](C(=O)N[C@@H](Cc2cnc[nH]2)C(=O)N2CCC[C@H]2C(N)=O)NC1=O	119	122	109	113	116	125	126	130	104	108	107	126	115	121	119	126	132	114	124	116	115	114	–	–	–	–	–	–	–	–	–	–	–
C=CCc1cccc(/C=N/NC(=O)CN2CCN(Cc3ccccc3)CC2)c1O	–	–	–	–	–	–	–	–	–	–	–	120	115	108	119	116	109	114	100	115	96.5	8.9	–	–	–	–	–	–	–	–	–	–	–
Cc1cc(Nc2cc(CN3CCOCC3)c3nc(C)c(Cc4ccc(Cl)cc4F)n3n2)[nH]n1	114	121	130	114	137	115	101	110	99.7	53.5	48.3	103	98.2	103	111	95.4	114	94	94.7	91.7	36.7	28.2	102	111	119	115	115	106	109	97.3	92	45	34.3
NC(=O)C1CCCc2c1[nH]c1ccc(Cl)cc21 (centres undefined)	111	129	121	117	123	117	105	87.6	57.4	24.2	7.26	117	121	123	105	105	123	115	109	81.4	21.4	9.96	107	121	111	129	119	116	110	116	85.5	24.3	12
CN1CCN2c3ncccc3Cc3ccccc3C2C1 (centres undefined)	121	112	141	118	138	114	123	135	33.4	98.9	108	101	105	110	112	103	103	116	110	29.5	98.8	112	–	–	–	–	–	–	–	–	–	–	–
NC(=O)c1cccc2nc(-c3ccc([C@H]4CCCN4)cc3F)[nH]c12	112	120	108	133	116	131	128	106	119	107	81.5	95.8	95.4	104	114	125	107	117	107	101	105	89.6	102	112	117	121	118	114	132	130	120	109	81.3
C[C@]12CC[C@@H]3c4ccc(O)cc4CC[C@H]3[C@@H]1C[C@@H](O)[C@@H]2O	–	–	–	–	–	–	–	–	–	–	–	116	114	106	114	114	107	123	117	118	118	115	115	121	129	125	120	110	114	113	110	105	95.9
CN[C@@H](C)C(=O)N[C@H]1CN(C(=O)CC(C)C)CC[C@H]2CC[C@@H](C(=O)NC(c3ccccc3)c3ccccc3)N2C1=O	96.2	118	112	119	82.9	85.2	74	54.5	17.4	13.9	11.3	102	105	104	100	96.9	91.6	95.8	37	10.6	10.2	6.19	85.3	98.6	92.6	94.1	121	91.8	97.1	90.3	17.7	13.9	9.5
O=C1Nc2ccc(I)cc2/C1=C/c1cc(Br)c(O)c(Br)c1	111	96.5	109	106	109	111	98.6	99.9	118	101	78.9	86.6	98.1	96.5	102	96.2	100	96.8	97.6	102	88.6	83	95.4	93.3	90.9	92.8	92	85.9	104	96.8	101	95.3	76.6
CC[C@@]1(O)C(=O)OC\C2=C1\C=C\3N(CC4=C3N=C5C=CC=CC5=C4)C2=O	122	115	145	120	80.4	30.3	30.7	28.6	21.1	14.9	25.7	117	106	120	106	77.5	22.3	20.8	20.4	11.9	16.7	17.9	126	110	121	103	76.5	28.9	28.6	27.5	21.9	22.4	14
CN[C@@H]1Cc2cccc3[nH]c(=O)n(c23)C1	–	–	–	–	–	–	–	–	–	–	–	112	113	118	110	107	105	108	106	105	102	103	–	–	–	–	–	–	–	–	–	–	–
COc1cc2c(Nc3ccc(Br)cc3F)ncnc2cc1OCC1CCN(C)CC1	93.2	93.5	88.9	90.1	75	85.5	81	71	74.8	31.5	69.8	79	81.7	76.5	75.5	75.4	78.1	77	79.7	90.3	72.6	73	82.4	79.1	82.2	88.4	88.2	85.2	86.8	70.7	88.6	41.1	84.4
COc1cc([C@H]2Oc3cc([C@H]4Oc5cc(O)cc(O)c5C(=O)[C@@H]4O)ccc3O[C@@H]2CO)ccc1O	103	122	119	126	120	123	125	95.9	106	119	82	105	124	118	110	114	116	111	100	111	115	103	104	121	115	119	118	100	102	109	106	110	101

Source: the supplement of paper PMC11451515
